Literature values as cited in patent US20110117175A1, “SWEET ANALGESIC FOR USE IN MEDICAL PROCEDURES OR TREATMENTS” (priority 2009, published 2011).

Assays:
[1] = system: patients older than infants
[2] = minimal amount of sugar used
[3] = 1 to 2 drops on tongue or pacifier

For OC[C@H]1O[C@@](CO)(O[C@H]2O[C@H](CO)[C@@H](O)[C@H](O)[C@H]2O)[C@@H](O)[C@@H]1O [sucrose], the “duration of infant or neonate response” value (infant or neonate; [3]) is listed as “up to 10 minutes”, the “time to infant or neonate response” value (infant or neonate; [3]) is listed as “up to 10 seconds” and the pain response (infant or neonate; infant or neonate, given prior to a painful procedure) is listed as “decreases the pain response”. For the same compound, the “use as an analgesic” value ([1]; adult patients (studies of adult woman)) was “ineffective”, the pain relief ([1]; patients older than infants) was “unsuccessful” and the blood glucose levels [2] was “no increase”.
